Experimental data published in ChEMBL document CHEMBL4725417, “Membrane Permeable, Bioreversibly Modified Prodrugs of Nucleoside Diphosphate-γ-Phosphonates” (J Med Chem, 2020).
Activity calls are given as the source filed them. The rule behind the calls is not given here.

Assays:
[1] = Half life in pH 7.3 PBS buffer at 1.4 mM by HPLC analysis; assay type: physicochemical
[2] = Half life in human CEM/0 cell extracts at 6 mM by HPLC analysis; assay type: ADME, tissue-based, CCRF-CEM
[3] = Half life assessed as pig liver esterase-mediated compound hydrolysis at 6 mM by HPLC analysis; assay type: ADME, Sus scrofa
[4] = system: Human immunodeficiency virus 1; assay: Antiviral activity against HIV1 3B infected in human CEM/0 CD4+ T cells assessed as reduction in virus-induced cytopathogenicity by measuring syncytia cell formation incubated for 4 to 5 days by microscopy; assay type: functional, organism-based; conditions: Human immunodeficiency virus 1, 3B, CCRF-CEM
[5] = Cytotoxicity in human CEM cells assessed as reduction in cell proliferation; assay type: cell-based; conditions: CEM cells (CCRF-CEM)
[6] = system: Human immunodeficiency virus 2; assay: Antiviral activity against HIV2 ROD infected in human CEM/0 CD4+ T cells assessed as reduction in virus-induced cytopathogenicity by measuring syncytia cell formation incubated for 4 to 5 days by microscopy; conditions: Human immunodeficiency virus 2, ISOLATE ROD, CCRF-CEM
[7] = system: Human immunodeficiency virus 2; assay: Antiviral activity against HIV2 ROD infected in human TK-deficient CEM/TK- T-cells assessed as reduction in virus-induced cytopathogenicity by measuring syncytia cell formation incubated for 4 to 5 days by microscopy; conditions: Human immunodeficiency virus 2, ISOLATE ROD
[8] = target: Human immunodeficiency virus type 1 reverse transcriptase (Human immunodeficiency virus 1) (UniProt Q72547); assay: Substrate activity at HIV1 reverse transcriptase incubated at 37 degC for 30 mins and at 80 degC for 7 mins by primer extension assay; conditions: time 37.0 min
[9] = target: DNA polymerase beta (Homo sapiens) (UniProt P06746); assay: Substrate activity at human DNA polymerase beta incubated at 37 degC for 60 mins and at 80 degC for 7 mins by primer extension assay; conditions: time 67.0 min
[10] = target: T1, DNA polymerase alpha catalytic subunit (Homo sapiens) (UniProt P09884); assay: Substrate activity at human DNA polymerase alpha incubated at 37 degC for 60 mins and at 80 degC for 7 mins by primer extension assay; conditions: time 67.0 min
T1 sequence (whole entry): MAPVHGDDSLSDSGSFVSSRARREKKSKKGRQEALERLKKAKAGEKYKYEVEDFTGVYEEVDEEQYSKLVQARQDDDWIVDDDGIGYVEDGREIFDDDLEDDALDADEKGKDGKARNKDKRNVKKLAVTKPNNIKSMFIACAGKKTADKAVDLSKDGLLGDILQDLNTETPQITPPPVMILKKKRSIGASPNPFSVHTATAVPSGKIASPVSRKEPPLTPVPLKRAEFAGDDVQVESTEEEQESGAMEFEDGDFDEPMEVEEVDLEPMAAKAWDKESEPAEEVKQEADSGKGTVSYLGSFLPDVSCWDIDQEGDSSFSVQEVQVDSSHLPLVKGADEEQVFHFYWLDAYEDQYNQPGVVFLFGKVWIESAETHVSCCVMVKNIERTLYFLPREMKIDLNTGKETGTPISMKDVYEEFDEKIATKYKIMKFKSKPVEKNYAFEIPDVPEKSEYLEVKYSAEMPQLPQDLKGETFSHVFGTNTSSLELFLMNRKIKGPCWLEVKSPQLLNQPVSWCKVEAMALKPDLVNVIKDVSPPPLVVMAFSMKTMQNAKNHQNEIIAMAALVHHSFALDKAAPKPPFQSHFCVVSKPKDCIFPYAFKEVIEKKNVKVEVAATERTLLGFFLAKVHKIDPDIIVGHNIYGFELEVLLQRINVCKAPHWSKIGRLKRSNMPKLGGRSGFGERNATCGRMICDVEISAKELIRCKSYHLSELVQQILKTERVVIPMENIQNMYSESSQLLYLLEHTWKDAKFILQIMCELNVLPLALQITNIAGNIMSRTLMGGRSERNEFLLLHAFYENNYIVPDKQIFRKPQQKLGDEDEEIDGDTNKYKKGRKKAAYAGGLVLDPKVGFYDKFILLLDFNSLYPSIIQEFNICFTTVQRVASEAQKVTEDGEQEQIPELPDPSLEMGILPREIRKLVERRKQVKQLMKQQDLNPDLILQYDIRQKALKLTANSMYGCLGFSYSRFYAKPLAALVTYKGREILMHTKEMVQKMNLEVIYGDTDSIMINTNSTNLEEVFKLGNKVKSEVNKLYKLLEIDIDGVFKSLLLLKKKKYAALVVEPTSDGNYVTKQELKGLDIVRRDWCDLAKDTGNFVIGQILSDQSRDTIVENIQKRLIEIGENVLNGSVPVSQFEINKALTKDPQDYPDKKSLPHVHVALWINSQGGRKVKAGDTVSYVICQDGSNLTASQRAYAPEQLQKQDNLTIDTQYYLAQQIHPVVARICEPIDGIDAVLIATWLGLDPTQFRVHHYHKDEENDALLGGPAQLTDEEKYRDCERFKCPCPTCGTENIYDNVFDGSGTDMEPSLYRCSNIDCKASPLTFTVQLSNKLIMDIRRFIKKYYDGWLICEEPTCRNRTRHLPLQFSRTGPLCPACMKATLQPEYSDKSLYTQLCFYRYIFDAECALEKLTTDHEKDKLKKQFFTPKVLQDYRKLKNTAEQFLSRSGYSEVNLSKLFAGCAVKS

Homo sapiens = species: Homo sapiens; assay: Substrate activity at human DNA polymerase gamma incubated at 37 degC for 60 mins and at 80 degC for 7 mins by primer extension assay; conditions: time 67.0 min

CCCCCCCCCCCCCCP(=O)(OCc1ccc(OC(=O)OCCCC)cc1)OP(=O)(O)OP(=O)(O)OC[C@@H]1C=C[C@H](n2cc(C)c(=O)[nH]c2=O)O1.N.N (stereo not given in full)
half-life at 1400 µM [1]: 21.6 days | half-life at 6000 µM [2]: 64 h | half-life at 6000 µM [3]: 0.032 h | EC50 [4]: 120 nM | CC50 [5]: 32000 nM | EC50 [6]: 220 nM | EC50 [7]: 1760 nM

CCCCCCCCCCCCP(=O)(OCc1ccc(OC(=O)CCCCCCCCCCC)cc1)OP(=O)(O)OP(=O)(O)OC[C@@H]1C=C[C@H](n2cc(C)c(=O)[nH]c2=O)O1.N.N (stereo not given in full)
half-life at 1400 µM [1]: 38.3 days | half-life at 6000 µM [2]: > 8 h | half-life at 6000 µM [3]: 0.917 h | EC50 [4]: 7.4 nM | CC50 [5]: 37000 nM | EC50 [6]: 91 nM | EC50 [7]: 66 nM

CCCCCCCCCCCCP(=O)(OCc1ccc(OC(=O)OCCCCCCCCCCC)cc1)OP(=O)(O)OP(=O)(O)OC[C@@H]1C=C[C@H](n2cc(C)c(=O)[nH]c2=O)O1.N.N (stereo not given in full)
half-life at 1400 µM [1]: 47.9 days | half-life at 6000 µM [2]: > 10 h | half-life at 6000 µM [3]: 10.6 h | EC50 [4]: 40 nM | CC50 [5]: 39000 nM | EC50 [6]: 110 nM | EC50 [7]: 320 nM

CCCCCCCCCCCCCCCCCCP(=O)(O)OP(=O)(O)OP(=O)(O)OC[C@@H]1C=C[C@H](n2cc(C)c(=O)[nH]c2=O)O1.N.N.N
half-life at 1400 µM [1]: 22.3 days | half-life at 6000 µM [2]: > 30 h | half-life at 6000 µM [3]: > 80 h | EC50 [4]: 46 nM | CC50 [5]: 21000 nM | Activity [8]: inactive | Activity [9]: inactive | Activity [10]: inactive | Activity (Homo sapiens): inactive | EC50 [6]: 110 nM | EC50 [7]: 1580 nM

Cc1cn([C@H]2C=C[C@@H](CO)O2)c(=O)[nH]c1=O [STAVUDINE]
CC50 [5]: > 50000 nM | Activity [9]: Active | Activity [10]: inactive | Activity (Homo sapiens): inactive

CCCCCCCCCCCCCCCCCCP(=O)(OCCC#N)OP(=O)(O)OP(=O)(O)OC[C@@H]1C=C[C@H](n2cc(C)c(=O)[nH]c2=O)O1.N.N (stereo not given in full)
half-life at 1400 µM [1]: 20 days | half-life at 6000 µM [2]: > 10 h | half-life at 6000 µM [3]: > 150 h | EC50 [4]: 95 nM | CC50 [5]: 38000 nM | EC50 [6]: 46 nM | EC50 [7]: 140 nM

CCCCCCCCCCCCP(=O)(OCc1ccc(OC(=O)OC)cc1)OP(=O)(O)OP(=O)(O)OC[C@@H]1C=C[C@H](n2cc(C)c(=O)[nH]c2=O)O1.N.N (stereo not given in full)
half-life at 1400 µM [1]: 5.12 days | half-life at 6000 µM [2]: 0.65 h | half-life at 6000 µM [3]: 0.7 h | EC50 [4]: 95 nM | CC50 [5]: > 100000 nM | EC50 [6]: 350 nM | EC50 [7]: 36800 nM

CCCCCCCCCCCCCCCCCCP(=O)(OCc1ccc(OC(=O)OCCCC)cc1)OP(=O)(O)OP(=O)(O)OC[C@@H]1C=C[C@H](n2cc(C)c(=O)[nH]c2=O)O1.N.N (stereo not given in full)
half-life at 1400 µM [1]: 51.7 days | half-life at 6000 µM [2]: > 10 h | half-life at 6000 µM [3]: 1.04 h | EC50 [4]: 1.8 nM | CC50 [5]: 16000 nM | EC50 [6]: 26 nM | EC50 [7]: 32 nM

CCCCCCCCCCCCCCCCCCP(=O)(OCc1ccc(OC(=O)CCCC)cc1)OP(=O)(O)OP(=O)(O)OC[C@@H]1C=C[C@H](n2cc(C)c(=O)[nH]c2=O)O1.N.N (stereo not given in full)
half-life at 1400 µM [1]: 26.9 days | half-life at 6000 µM [2]: 6.7 h | half-life at 6000 µM [3]: 2 h | EC50 [4]: 7.4 nM | CC50 [5]: 19000 nM | EC50 [6]: 21 nM | EC50 [7]: 42 nM

CCCCCCCCCCCCP(=O)(OCc1ccc(OC(=O)OCCCC)cc1)OP(=O)(O)OP(=O)(O)OC[C@@H]1C=C[C@H](n2cc(C)c(=O)[nH]c2=O)O1.N.N (stereo not given in full)
half-life at 1400 µM [1]: 14.4 days | half-life at 6000 µM [2]: 4.3 h | half-life at 6000 µM [3]: 0.009 h | EC50 [4]: 97 nM | CC50 [5]: 38000 nM | EC50 [6]: 200 nM | EC50 [7]: 9900 nM

CCCCCCCCCCCCCCP(=O)(OCc1ccc(OC(=O)CCCC)cc1)OP(=O)(O)OP(=O)(O)OC[C@@H]1C=C[C@H](n2cc(C)c(=O)[nH]c2=O)O1.N.N (stereo not given in full)
half-life at 1400 µM [1]: 21.2 days | half-life at 6000 µM [2]: 4.5 h | half-life at 6000 µM [3]: 0.081 h | EC50 [4]: 31 nM | CC50 [5]: 56000 nM | EC50 [6]: 160 nM | EC50 [7]: 530 nM

CCCCCCCCCCCCP(=O)(O)OP(=O)(O)OP(=O)(O)OC[C@@H]1C=C[C@H](n2cc(C)c(=O)[nH]c2=O)O1.N.N.N
half-life at 1400 µM [1]: > 125 days | half-life at 6000 µM [2]: > 30 h | half-life at 6000 µM [3]: > 150 h | EC50 [4]: 150 nM | CC50 [5]: > 100000 nM | Activity [8]: Active | Activity [9]: inactive | Activity [10]: inactive | Activity (Homo sapiens): inactive | EC50 [6]: 170 nM | EC50 [7]: 41100 nM

CCCCCCCCCCCCP(=O)(OCCC#N)OP(=O)(O)OP(=O)(O)OC[C@@H]1C=C[C@H](n2cc(C)c(=O)[nH]c2=O)O1.N.N (stereo not given in full)
half-life at 1400 µM [1]: 6.17 days | half-life at 6000 µM [2]: > 15 h | half-life at 6000 µM [3]: > 80 h | EC50 [4]: 210 nM | CC50 [5]: > 100000 nM | EC50 [6]: 87 nM | EC50 [7]: 20900 nM

CCCCCCCCCCCCP(=O)(OCc1ccc(OC(C)=O)cc1)OP(=O)(O)OP(=O)(O)OC[C@@H]1C=C[C@H](n2cc(C)c(=O)[nH]c2=O)O1.N.N (stereo not given in full)
half-life at 1400 µM [1]: 4.29 days | half-life at 6000 µM [2]: 0.043 h | half-life at 6000 µM [3]: 0.46 h | EC50 [4]: 23 nM | CC50 [5]: > 100000 nM | EC50 [6]: 21 nM | EC50 [7]: 26300 nM

CCCCCCCCCCCCP(=O)(OCc1ccc(OC(=O)CCCC)cc1)OP(=O)(O)OP(=O)(O)OC[C@@H]1C=C[C@H](n2cc(C)c(=O)[nH]c2=O)O1.N.N (stereo not given in full)
half-life at 1400 µM [1]: 8.96 days | half-life at 6000 µM [2]: 0.81 h | half-life at 6000 µM [3]: 0.013 h | EC50 [4]: 65 nM | CC50 [5]: 86000 nM | EC50 [6]: 25 nM | EC50 [7]: 3430 nM
